{"source": "patent US6297230A", "about": "“Cyanoaziridines for treating cancer” (priority 2000, dated 2001)", "key": {"[1]": {"test_system": "8226/I-R myeloma cells", "test": "MTT growth inhibition, imexon-resistant 8226 myeloma cells", "assay_type": "cell-based, human", "settings": "for Fold Resistance of IC50 R/IC50 's: imexon-resistant vs sensitive 8226; for Cross-resistance of imexon-resistant cells: 8226 imexon-resistant cells", "experimental": "(§1) Microculture Tetrazolium (MTT) Assay for Tumor Cells\n(§2) Tumors are disaggregated into single cell suspensions using mechanical, hypoosmotic, and/or enzymatic (trypsin) methods. The cells are plated at a concentration of 3-5×10^4 per […] well into plastic 96-well plates. Growth medium containing 5-10% (vol/vol) heat-inactivated fetal bovine serum and penicillin/streptomycin (both […]) are added prior to incubation at 37° C. for 6 days. Afterwards the medium containing the drug is removed, the cells are centrifuged in fresh medium or phosphate-buffered saline (pH 7.4). A tetrazolium dye, […]-2,5-diphenyl tetrazolium (MTT), is then added. (Mossman, T., J Immunol 65:55-63, 1983.) This dye forms a colored formazan product upon activation by mitochondrial reductases in viable cells. Typically, the formazan product is solubilized in acid-propanol or DMSO. The intensity of the color is proportional to viable cell numbers and this is quantitated by spectrophotometric absorbance at 570 nm on a micro ELISA plate reader. The results are calibrated in % control absorbance from untreated tumor cells. (Alley, et al., Cancer Res 48:589-601, 1988.)\n(§3) The following unpublished studies were performed in vitro to develop and characterize a human myeloma cell line with resistance to imexon-induced cytotoxicity. The original (parental) 8226 cell line was developed by Matsuoka, et al. (Matsuoka, et al., Proc Soc Exp Biol Med 125:1246-1250, 1967). It is a lymphoblastoid cell line which stains for lambda light immunoglobulin production. It grows in vitro in suspension culture (non-adherent) and forms tumors when injected into SCID mice. (Skehan, et al., J Natl Cancer Inst 82:1107-1112, 1990.)\n(§4) One exciting feature of our novel compounds is, that they work on imexon-resistant cells. An imexon-resistant 8226 myeloma cell line was selected by continuously exposing cells to gradually increasing concentrations of imexon up to 3.25 mg/mL. This cell line has slightly longer cell doubling time than 8226 sensitive cells (24 vs 20 hours). […] The dose response curve for imexon continuous exposure was determined using MTT assay. Each data point represents the mean of three experiments performed in 8 replicates.\n(§5) We compared IC50 concentrations and there is a 4-fold resistance observed for the 8226/I-R cell line when the cells were continuously exposed to imexon for […] at 37° C. The degree of resistance was relatively unstable in the absence of the drug, with the resistant cells losing substantial resistance when maintained in imexon-free medium for 20 weeks (FIG. 2).\n(§6) IC50 was measured by MTT assay. IC50 refer to the concentration by drug that results in 50% growth inhibition. A minimum of 2 assays were performed for each drug following 250 mg/mL imexon is equivalent to 6.5 cGy radiation in sensitive cells.\n(§7) Using the colorimetric microculture tetrazolium (MTT) assay, imexon and 25-related analogs were studied for tumor growth inhibition in vitro. Imexon-induced DNA single strand breaks were assessed by alkaline elution. Cells were exposed to imexon for 1 hour prior to start of experiment. The fraction of ^14 C-labeled DNA retained on the filter is plotted against the time of elution. The cells included parental 8226 myeloma cells and the 8226 imexon-resistant cells exposed to drug (imexon or analog) continuously for 10 days at 37° C. At the end of the exposure period, the cells were analyzed for viability using the formazan-forming tetrazolium dye (MTT) assay."}, "[2]": {"test_system": "8226/S myeloma cells", "test": "MTT growth inhibition, parental 8226 myeloma cells", "assay_type": "cell-based, human", "experimental": "as §1, §2, §3, §4, §5, §6, §7"}, "[3]": {"test_system": "L-1210 leukemia cells (sensitive)", "test": "MTT growth inhibition, sensitive L-1210 leukemia cells", "assay_type": "cell-based, mouse", "settings": "Mus musculus, L1210, 192 h", "experimental": "as §2, with “1988.) […]” for “1988.)”\nMurine L-1210 Leukemia Cells were first described by Law, et al. from a female DBA/2 mouse exposed to topical methylcholanthrene. (Law, et al., J Natl Cancer Inst 10:179-192, 1949.) The cells represent a lymphocytic lineage and are highly tumorigenic in syngeneic DBA/2 mice, producing lethality typically 10-14 days after inoculation. This cell line has been used extensively to characterize the antitumor activity of chemotherapeutic agents. (Goldin, et al., Cancer Res (Cancer Chemotherapy Screening Data IX) 21:27-92, 1961.) The L-1210 cells have a model 40-41 chromosomes and a very high plating efficiency in suspension cultures in vitro.\n(§8) *Drug continuously present for 8 days; IC50 measured by MTT dye"}, "[4]": {"test_system": "L-1210 MDR leukemia cells", "test": "MTT growth inhibition, multidrug-resistant L-1210 leukemia cells", "assay_type": "cell-based, mouse", "settings": "for IC50: Mus musculus, L1210, 192 h", "experimental": "as §2\nIn addition, the imexon analogs have also been tested in a multidrug-resistant (MDR) mouse L-1210 leukemia cell line.\nL-1210 MDR Cells represent a multidrug-resistant cell line developed for resistance to the alkylating agent mitomycin C. (Dorr, et al., Biochem Pharmacol 36(19):3115-3120, 1987.) This cell line has the same general growth characteristics of the parental line, but is cross-resistant to numerous natural-product based anticancer agents. This includes anthracyclines such as doxorubicin (Adriamycin®) and vinca alkaloids such as vincristine or vinblastine.\nas §8"}, "[5]": {"test_system": "WiDr MITOX cells", "settings": "cited from earlier work"}, "[6]": {"test_system": "L-1210 MDR leukemia cells", "settings": "cited from earlier work"}, "[7]": {"test_system": "OVCAR-3 ovarian carcinoma cells", "settings": "clinically relevant concentrations in vitro; cited from earlier work"}, "[8]": {"settings": "Homo sapiens, Table 5, imexon-resistant 8226, read-out: IC50"}, "[9]": {"settings": "Homo sapiens, Table 5, Sensitive (parental) 8226, read-out: IC50"}, "[10]": {"settings": "Homo sapiens, 8226/I-R, MTT, read-out: IC50"}, "[11]": {"settings": "Homo sapiens, 8226/S, MTT, read-out: IC50"}}, "note": "Where two headings read alike, the source gives them in different places.", "data": [{"compound": "N#CC1CN1C(=O)Nc1ccc(Cl)c(Cl)c1", "note": "(centres unmarked) [AMP 408, 2-Cyanoaziridine-1-[N-(3,4-dichlorophenyl)]carboxamide]", "values": [{"measurement": "IC50", "setting": "[1]; [8]", "value": 0.68, "unit": "µg/mL"}, {"measurement": "Fold Resistance of IC50 R/IC50 's", "setting": "[1]; Table 5", "value": 2.5}, {"measurement": "IC50", "setting": "[2]; [9]", "value": 0.27, "unit": "µg/mL"}, {"measurement": "Enhanced potency: decrease in IC50 against myeloma cell growth", "setting": "[2]; compared with imexon", "value": "> 40", "unit": "%"}, {"measurement": "IC50", "setting": "[3]; Sensitive L-1210, drug continuously present 8 days, read-out: IC50", "value": 0.7, "unit": "µg/mL"}, {"measurement": "Fold Resistance of IC50 's (MDR/S)", "setting": "[4]; L-1210 MDR vs sensitive, 11520 min", "value": 2.7}, {"measurement": "IC50", "setting": "[4]; MDR L-1210, drug continuously present 8 days, read-out: IC50", "value": 1.9, "unit": "µg/mL"}]}, {"compound": "Bleomycin [reference compound]", "values": [{"measurement": "IC50", "setting": "[1]; 8226/I-R, MTT, bleomycin", "value": 7.8, "unit": "µg/mL"}, {"measurement": "Cross-resistance of imexon-resistant cells", "setting": "[1]; MTT", "value": "remains sensitive"}, {"measurement": "Fold Resistance (IC50 resistant cells/IC50 sensitive cells)", "setting": "[1]; Table 4, 8226/I-R vs 8226/S", "value": 1.11}, {"measurement": "IC50", "setting": "[2]; 8226/S, MTT, bleomycin", "value": 7.0, "unit": "µg/mL"}]}, {"compound": "CC[C@]1(O)C[C@H]2CN(CCc3c([nH]c4ccccc34)[C@@](C(=O)OC)(c3cc4c(cc3OC)N(C=O)[C@H]3[C@@](O)(C(=O)OC)[C@H](OC(C)=O)[C@]5(CC)C=CCN6CC[C@]43[C@@H]65)C2)C1", "note": "[Vincristine, reference compound]", "values": [{"measurement": "Cross-resistance of imexon-resistant cells", "setting": "[1]; MTT", "value": "remains sensitive"}, {"measurement": "IC50", "setting": "[1]; [10]", "value": 0.0024, "unit": "µM"}, {"measurement": "Fold Resistance (IC50 resistant cells/IC50 sensitive cells)", "setting": "[1]; Table 4, 8226/I-R vs 8226/S", "value": 0.88}, {"measurement": "IC50", "setting": "[2]; [11]", "value": 0.0028, "unit": "µM"}, {"measurement": "Fold resistance of WiDr MITOX cells", "setting": "[5]", "value": 2, "unit": "fold"}, {"measurement": "Cross-resistance of L-1210 MDR", "setting": "[6]", "value": "cross-resistant"}]}, {"compound": "CO[C@@]12[C@H](COC(N)=O)C3=C(C(=O)C(C)=C(N)C3=O)N1C[C@@H]1N[C@@H]12", "note": "[Mitomycin C, reference compound]", "values": [{"measurement": "Cross-resistance of imexon-resistant cells", "setting": "[1]; MTT", "value": "partial resistance"}, {"measurement": "IC50", "setting": "[1]; [10]", "value": 0.099, "unit": "µM"}, {"measurement": "Fold Resistance (IC50 resistant cells/IC50 sensitive cells)", "setting": "[1]; human, 8226 myeloma cells", "value": 1.50}, {"measurement": "IC50", "setting": "[2]; [11]", "value": 0.066, "unit": "µM"}]}, {"compound": "CC[C@]1(O)C[C@@H]2CN(CCc3c([nH]c4ccccc34)[C@@](C(=O)OC)(c3cc4c(cc3OC)N(C)[C@H]3[C@@](O)(C(=O)OC)[C@H](OC(C)=O)[C@]5(CC)C=CCN6CC[C@]43[C@@H]65)C2)C1", "note": "[vinblastine]", "values": [{"measurement": "Cross-resistance of L-1210 MDR", "setting": "[6]", "value": "cross-resistant"}]}, {"compound": "N#CC1CN1C(N)=O", "note": "(centres unmarked) [AMP 409, 2-cyanoaziridine-1-carboxamide, reference compound]", "values": [{"measurement": "IC50", "setting": "[1]; [8]", "value": 48, "unit": "µg/mL"}, {"measurement": "Fold Resistance of IC50 R/IC50 's", "setting": "[1]; Table 5", "value": 1.5}, {"measurement": "IC50", "setting": "[2]; [9]", "value": 32, "unit": "µg/mL"}, {"measurement": "IC50", "setting": "[3]", "value": "> 10", "unit": "µg/mL"}, {"measurement": "IC50", "setting": "[4]", "value": "> 10", "unit": "µg/mL"}]}, {"compound": "N.N.[Cl][Pt][Cl]", "note": "[Cisplatin, reference compound]", "values": [{"measurement": "IC50", "setting": "[1]; 8226/I-R, MTT, read-out: IC50", "value": 2, "unit": "µM"}, {"measurement": "Cross-resistance of imexon-resistant cells", "setting": "[1]; MTT", "value": "partial cross-resistance"}, {"measurement": "Fold Resistance (IC50 resistant cells/IC50 sensitive cells)", "setting": "[1]; Table 4, 8226/I-R vs 8226/S", "value": 1.85}, {"measurement": "IC50", "setting": "[2]; 8226/S, MTT, read-out: IC50", "value": 1.1, "unit": "µM"}, {"measurement": "Resistance of OVCAR-3", "setting": "[7]", "value": "resistant in vitro to clinically relevant concentrations"}]}, {"compound": "N[C@@H](Cc1ccc(N(CCCl)CCCl)cc1)C(=O)O", "note": "[Melphalan, reference compound]", "values": [{"measurement": "IC50", "setting": "[1]; Homo sapiens", "value": 5.3, "unit": "µM"}, {"measurement": "Fold Resistance (IC50 resistant cells/IC50 sensitive cells)", "setting": "[1]; Table 4, 8226/I-R vs 8226/S", "value": 0.81}, {"measurement": "IC50", "setting": "[2]; Homo sapiens", "value": 0.062, "unit": "µM"}, {"measurement": "Resistance of OVCAR-3", "setting": "[7]", "value": "resistant in vitro to clinically relevant concentrations"}]}, {"compound": "O=C1c2c(O)ccc(O)c2C(=O)c2c(NCCNCCO)ccc(NCCNCCO)c21", "note": "[mitoxantrone]", "values": [{"measurement": "Fold resistance of WiDr MITOX cells", "setting": "[5]", "value": 21, "unit": "fold"}]}, {"compound": "N.N.O=C([O-])C1(C(=O)[O-])CCC1.[Pt+2]", "note": "[Carboplatin, reference compound]", "values": [{"measurement": "IC50", "setting": "[1]; 8226/I-R, MTT, read-out: IC50", "value": 16, "unit": "µM"}, {"measurement": "Cross-resistance of imexon-resistant cells", "setting": "[1]; MTT", "value": "partial cross-resistance"}, {"measurement": "Fold Resistance (IC50 resistant cells/IC50 sensitive cells)", "setting": "[1]; Table 4, 8226/I-R vs 8226/S", "value": 1.65}, {"measurement": "IC50", "setting": "[2]; 8226/S, MTT, read-out: IC50", "value": 9.7, "unit": "µM"}]}]}
